According to patent US20160220801A1, “TREATING LICE WITH GASEOUS COMPOUNDS IN AN AIRTIGHT SPACE” (NOVOMIC LTD., priority 2007, published 2016):

System: lice
Conditions: active agent delivered as gas/vapour in an airtight cap around the head; comparison among carboxylic acids

SMILES | effectiveness of carboxylic acids for use in treating lice and nits
CC(=O)O [acetic acid, Acetic acid] | most effective
O=CO [formic acid, Formic acid] | most effective
